{"source": "patent US20080085858A1", "about": "“Pharmaceutical Composition” (KYOWA HAKKO KOGYO CO., LTD., priority 2004, published 2008)", "origin": "cited, not measured here", "key": {"[1]": {"tested_on": "delayed-type allergic reaction in the skin", "details": "animal model; Non-patent Document 1"}, "[2]": {"tested_on": "chronic dermatitis models", "details": "Non-patent Document 2"}}}
{"smiles": "COc1ccc([C@]2(C#N)CC[C@@H](C(=O)O)CC2)cc1OC1CCCC1", "note": "[SB207499]", "values": [{"measurement": "Effect on delayed-type allergic reaction in the skin", "setting": "[1]", "value": "inhibit a delayed-type allergic reaction in the skin"}, {"measurement": "Therapeutic effects on chronic dermatitis models", "setting": "[2]", "value": "exhibit therapeutic effects on chronic dermatitis models"}]}
